Experimental data from ChEMBL document CHEMBL3045316, “Synthesis and analgesic activity of new heterocyclic compounds derived from monoterpenoids” (Med Chem Res, 2013).

Experiments:
Mus musculus [1] = experiment: Analgesic activity in albino Mus musculus (mouse) assessed as protection against thermal stimulus-induced paw licking and jumping behaviour at 10 mg/kg, po measured after 1 hr by hot plate assay; type: functional
Mus musculus [2] = experiment: Analgesic activity in albino Mus musculus (mouse) assessed as inhibition of acetic acid-induced abdominal writhings at 10 mg/kg, po administered 1 hr before acetic acid injection measured for 5 to 8 min; type: functional; conditions: Abdomen
Mus musculus [3] = experiment: Analgesic activity in albino Mus musculus (mouse) assessed as proportion of animals without pain behaviour symptoms at 10 mg/kg, po administered 1 hr before acetic acid injection measured for 5 to 8 min; type: functional
Mus musculus [4] = experiment: Selectivity index, ratio of LD50 for albino Mus musculus (mouse) to ED50 for albino Mus musculus (mouse) by hot-plate test
Mus musculus [5] = experiment: Selectivity index, ratio of LD50 for albino Mus musculus (mouse) to ED50 for albino Mus musculus (mouse) by acetic acid-induced writhing test
[6] = Acute toxicity in albino Mus musculus (mouse) assessed as mortality administered intragastrically by kreber method; type: organism-based; conditions: in vivo, po
Mus musculus [7] = experiment: Analgesic activity in po dosed albino Mus musculus (mouse) assessed as protection against thermal stimulus-induced paw licking and jumping behaviour measured after 1 hr by hot plate assay; type: functional
Mus musculus [8] = experiment: Analgesic activity in po dosed albino Mus musculus (mouse) assessed as inhibition of acetic acid-induced abdominal writhings administered 1 hr before acetic acid injection measured for 5 to 8 min; type: functional; conditions: Abdomen

Work on `COc1cc([C@@H]2CC(C)(C)[C@@H]3CC=C(C)[C@@H](O)[C@@H]3O2)cc(OC)c1OC` yielded an Activity (Mus musculus [1]) of 16% and an inhibition in vivo at 10 mg/kg (Mus musculus [2]) of 13%.
For `COc1cc([C@H]2O[C@@]3(C)C[C@H](c4cc(OC)c(OC)c(OC)c4)O[C@H]4C(=O)[C@H](C)[C@H]2C[C@H]43)cc(OC)c1OC`, the Activity (Mus musculus [1]) was 19%, the Activity (Mus musculus [3]) was 25% and the inhibition in vivo at 10 mg/kg (Mus musculus [2]) was 50%.
For `COc1ccc([C@H]2O[C@@]3(C)C[C@H](c4ccc(OC)c(OC)c4OC)O[C@H]4C(=O)[C@H](C)[C@H]2C[C@H]43)c(OC)c1OC`, the Activity (Mus musculus [1]) was 9% and the inhibition in vivo at 10 mg/kg (Mus musculus [2]) was 23%.
For `COc1cc([C@@H]2C[C@@]3(C)O[C@H]4C(C)=CC[C@@H]3[C@H]4O2)cc(OC)c1OC`, the “Ratio LD50/ED50” value (Mus musculus [4]) was 60, the “Ratio LD50/ED50” value (Mus musculus [5]) was 60 and the LD50 [6] was 500 mg/kg. It also gave an ED50 (Mus musculus [7]) of 25 mg/kg, an ED50 (Mus musculus [8]) of 22 mg/kg and an Activity (Mus musculus [1]) of 72%. For the same molecule, the Activity (Mus musculus [3]) was 25% and the inhibition in vivo at 10 mg/kg (Mus musculus [2]) was 65%.
With `CC(=O)Oc1ccccc1C(=O)O` [ASPIRIN] the “Ratio LD50/ED50” value (Mus musculus [5]) was 10.3.
For `O=C([O-])Cc1ccccc1Nc1c(Cl)cccc1Cl.[Na+]` [DICLOFENAC SODIUM], the Activity (Mus musculus [1]) was 64%, the Activity (Mus musculus [3]) was 87.5% and the inhibition in vivo at 10 mg/kg (Mus musculus [2]) was 90%.
